This note sets out measurements from patent US12139487B2, “Compounds and uses thereof” (Foghorn Therapeutics Inc., priority 2022, dated 2024).

One assay addresses T1, BRG-1 (Homo sapiens, UniProt P51532).
T1 construct: made in house; host or cells: High Five insect cells
Nature of the assay: ATPase catalytic activity assay (ADP-Glo), BRG-1. The assay is classed as biochemical. Particulars: Table 10, read-out: BRG1 IC50. The essentials: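 Biochemical ADP-Glo assay, BRG-1. Post-reaction: ATP depletion reagent, 40 min RT; ADP→ATP conversion/detection reagent, 60 min RT; luminescence read on plate luminometer.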
On the technique in general: ADP-Glo first removes unused ATP, then detects ADP through luciferase.

In the next assay the target is T2, BRM (Homo sapiens, UniProt P51531).
T2 construct: made in house; host or cells: High Five insect cells
T2 sequence (P51531 whole entry): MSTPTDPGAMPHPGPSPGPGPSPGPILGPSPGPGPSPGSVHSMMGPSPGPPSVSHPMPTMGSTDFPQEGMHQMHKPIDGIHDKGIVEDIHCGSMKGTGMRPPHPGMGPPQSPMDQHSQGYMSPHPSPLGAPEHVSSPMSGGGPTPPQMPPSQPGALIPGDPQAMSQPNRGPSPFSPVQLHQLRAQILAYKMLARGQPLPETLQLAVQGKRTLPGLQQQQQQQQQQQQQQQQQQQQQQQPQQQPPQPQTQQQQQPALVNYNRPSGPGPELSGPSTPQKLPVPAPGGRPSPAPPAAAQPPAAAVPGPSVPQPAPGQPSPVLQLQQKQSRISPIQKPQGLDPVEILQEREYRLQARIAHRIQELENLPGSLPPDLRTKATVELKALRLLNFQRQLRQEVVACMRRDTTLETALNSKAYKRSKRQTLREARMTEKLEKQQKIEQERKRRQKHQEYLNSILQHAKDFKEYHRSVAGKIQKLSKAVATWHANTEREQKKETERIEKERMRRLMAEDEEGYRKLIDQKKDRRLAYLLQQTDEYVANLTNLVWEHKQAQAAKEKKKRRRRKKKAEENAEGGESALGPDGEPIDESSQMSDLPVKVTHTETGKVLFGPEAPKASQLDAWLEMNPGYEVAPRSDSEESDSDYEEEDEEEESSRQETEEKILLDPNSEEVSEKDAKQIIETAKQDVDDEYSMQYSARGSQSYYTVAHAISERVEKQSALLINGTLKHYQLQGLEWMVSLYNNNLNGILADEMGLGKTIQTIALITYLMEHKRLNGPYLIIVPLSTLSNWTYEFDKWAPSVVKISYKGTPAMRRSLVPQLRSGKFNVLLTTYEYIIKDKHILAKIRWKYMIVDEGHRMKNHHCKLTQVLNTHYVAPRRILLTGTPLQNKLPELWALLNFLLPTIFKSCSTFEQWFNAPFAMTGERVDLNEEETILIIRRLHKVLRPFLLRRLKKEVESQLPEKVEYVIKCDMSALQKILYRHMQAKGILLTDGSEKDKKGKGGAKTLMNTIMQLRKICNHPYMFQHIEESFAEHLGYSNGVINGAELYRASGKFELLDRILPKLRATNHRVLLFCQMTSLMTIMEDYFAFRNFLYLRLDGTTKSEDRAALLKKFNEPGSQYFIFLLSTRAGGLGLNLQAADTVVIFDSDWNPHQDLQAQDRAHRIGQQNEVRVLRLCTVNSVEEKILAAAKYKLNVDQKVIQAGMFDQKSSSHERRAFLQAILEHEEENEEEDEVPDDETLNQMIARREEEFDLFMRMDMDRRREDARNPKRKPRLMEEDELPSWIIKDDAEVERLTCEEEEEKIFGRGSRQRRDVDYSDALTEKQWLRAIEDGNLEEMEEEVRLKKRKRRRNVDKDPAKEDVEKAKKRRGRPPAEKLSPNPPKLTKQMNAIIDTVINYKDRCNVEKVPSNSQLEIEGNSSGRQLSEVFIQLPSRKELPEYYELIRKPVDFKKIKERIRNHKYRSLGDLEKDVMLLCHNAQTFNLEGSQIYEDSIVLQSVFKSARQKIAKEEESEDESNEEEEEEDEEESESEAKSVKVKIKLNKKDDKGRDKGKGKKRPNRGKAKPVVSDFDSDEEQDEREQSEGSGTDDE
Nature of the assay: ATPase catalytic activity assay (ADP-Glo), BRM. The format is biochemical. As to conditions: Table 10; for Ratio (BRG1 IC50 (μM) divided by BRM IC50 (μM)): ATPase assay, selectivity BRG1/BRM; for IC50: ATPase catalytic activity assay (ADP-Glo). The essentials: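 Reaction holds 30 nM BRM, 20 nM salmon sperm DNA and 400 μM ATP in 20 mM Tris pH 8, 20 mM MgCl2, 50 mM NaCl, 0.1% Tween-20, 1 mM DTT. Incubated 1 h at room temperature. ADP formed is detected by ADP-Glo luminescence.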

T1 sequence (P51532 whole entry): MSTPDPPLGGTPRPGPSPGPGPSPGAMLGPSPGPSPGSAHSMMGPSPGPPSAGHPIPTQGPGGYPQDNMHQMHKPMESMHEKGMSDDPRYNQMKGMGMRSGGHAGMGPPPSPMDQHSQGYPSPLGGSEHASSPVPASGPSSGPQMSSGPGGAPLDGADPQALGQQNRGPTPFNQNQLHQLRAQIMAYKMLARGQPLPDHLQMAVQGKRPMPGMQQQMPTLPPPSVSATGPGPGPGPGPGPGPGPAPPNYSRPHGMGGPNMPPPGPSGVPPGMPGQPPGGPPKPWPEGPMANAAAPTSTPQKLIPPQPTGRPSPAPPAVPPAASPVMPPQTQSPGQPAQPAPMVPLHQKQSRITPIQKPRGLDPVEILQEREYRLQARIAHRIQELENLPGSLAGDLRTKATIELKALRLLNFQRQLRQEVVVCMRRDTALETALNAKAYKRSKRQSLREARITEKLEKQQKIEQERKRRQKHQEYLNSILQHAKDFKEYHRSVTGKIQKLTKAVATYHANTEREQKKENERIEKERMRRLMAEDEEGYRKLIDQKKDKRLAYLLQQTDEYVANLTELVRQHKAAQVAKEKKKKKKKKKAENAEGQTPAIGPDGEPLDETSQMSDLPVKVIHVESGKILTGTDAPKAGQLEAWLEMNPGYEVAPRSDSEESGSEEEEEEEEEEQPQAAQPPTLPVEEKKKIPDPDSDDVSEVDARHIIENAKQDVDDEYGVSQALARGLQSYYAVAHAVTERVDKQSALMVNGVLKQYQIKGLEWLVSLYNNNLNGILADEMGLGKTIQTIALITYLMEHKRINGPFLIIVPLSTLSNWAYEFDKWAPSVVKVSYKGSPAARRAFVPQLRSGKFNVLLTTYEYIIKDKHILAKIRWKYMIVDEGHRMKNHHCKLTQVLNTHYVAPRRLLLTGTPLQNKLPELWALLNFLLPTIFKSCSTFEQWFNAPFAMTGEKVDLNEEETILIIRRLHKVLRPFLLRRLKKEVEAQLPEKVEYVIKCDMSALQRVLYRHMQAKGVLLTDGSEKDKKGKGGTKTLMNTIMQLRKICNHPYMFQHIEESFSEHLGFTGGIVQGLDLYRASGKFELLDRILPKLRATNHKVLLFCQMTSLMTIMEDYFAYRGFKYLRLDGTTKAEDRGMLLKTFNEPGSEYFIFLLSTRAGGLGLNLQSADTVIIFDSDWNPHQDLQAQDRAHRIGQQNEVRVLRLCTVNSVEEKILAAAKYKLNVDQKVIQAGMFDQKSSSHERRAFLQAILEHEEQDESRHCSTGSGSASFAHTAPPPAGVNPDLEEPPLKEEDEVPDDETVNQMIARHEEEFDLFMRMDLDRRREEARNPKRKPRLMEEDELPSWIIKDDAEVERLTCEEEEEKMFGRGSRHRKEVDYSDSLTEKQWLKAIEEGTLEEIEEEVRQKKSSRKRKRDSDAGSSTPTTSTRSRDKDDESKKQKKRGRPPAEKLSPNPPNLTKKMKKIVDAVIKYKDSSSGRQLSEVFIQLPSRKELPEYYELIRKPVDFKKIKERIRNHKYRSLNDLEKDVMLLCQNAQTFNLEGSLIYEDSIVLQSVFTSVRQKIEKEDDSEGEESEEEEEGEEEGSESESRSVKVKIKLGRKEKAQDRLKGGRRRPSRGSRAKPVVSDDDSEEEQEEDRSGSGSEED

Turning to `O=C(NCc1cc2cc(N3CCOc4cc(C5CC5)cnc43)ccc2cn1)c1cc(F)c2c(c1)S(=O)(=O)[C@@H](F)CCO2` [Compound 141], at BRG-1, the IC50 amounted to 76.3 nM. On BRM, the “Ratio (BRG1 IC50 (μM) divided by BRM IC50 (μM))” value is reported as 16.19 and it took 4.7 nM to reach half-maximal inhibition (IC50).
`C[C@H]1[C@H](F)CN1c1cnc2c(c1)OCCN2c1ccc2cnc(CNC(=O)c3cc(F)c4c(c3)S(=O)(=O)[C@@H](F)CCO4)cc2n1` [Compound 142]: the IC50 at BRG-1 amounted to 89.1 nM. Also, on BRM, the “Ratio (BRG1 IC50 (μM) divided by BRM IC50 (μM))” value is given as 19.04 and half-maximal inhibition (IC50) required 4.7 nM.
Regarding `COc1nc(-c2ccc3cnc(CNC(=O)c4cc(F)c5c(c4)S(=O)(=O)[C@@H](F)CCO5)cc3n2)ccc1C(F)F` [Compound 143], the IC50 on BRG-1 is 98.5 nM. Also, at BRM, the “Ratio (BRG1 IC50 (μM) divided by BRM IC50 (μM))” value came out at 21.43 and half-maximal inhibition (IC50) was put at 4.7 nM.
For `COc1ccc(-c2ccc3cnc(CNC(=O)c4cc(F)c5c(c4)S(=O)(=O)[C@@H](F)CCO5)cc3n2)nc1[C@@H]1CC1(F)F` [Compound 144], the IC50 on BRG-1 was found to be 109 nM; against BRM it was 4.8 nM. Besides, the “Ratio (BRG1 IC50 (μM) divided by BRM IC50 (μM))” value at BRM is recorded as 25.02.
For the compound `O=C(NCc1cc2nc(N3CCOc4cc(CC(F)F)cnc43)ccc2cn1)c1cc(F)c2c(c1)S(=O)(=O)[C@@H](F)CCO2` [Compound 145], the IC50 was found to be 77.2 nM on BRG-1 and 4.8 nM against BRM. Besides, the “Ratio (BRG1 IC50 (μM) divided by BRM IC50 (μM))” value on BRM turned out to be 16.05.
Consider `O=C(NCc1cc2nc(N3CCOc4cc(C56CC(C5)C6)cnc43)ccc2cn1)c1cc(F)c2c(c1)S(=O)(=O)[C@@H](F)COC2` [Compound 146], for which the IC50 stood at 72.9 nM at BRG-1 and 4.8 nM at BRM. The “Ratio (BRG1 IC50 (μM) divided by BRM IC50 (μM))” value at BRM stood at 15.71.
Regarding `COCc1ccnc2c1OCCN2c1ccc2cnc(CNC(=O)c3cc(F)c4c(c3)S(=O)(=O)[C@@H](F)CCO4)cc2n1` [Compound 147], the IC50 at BRG-1 is 58.1 nM. Besides, at BRM, the “Ratio (BRG1 IC50 (μM) divided by BRM IC50 (μM))” value is 11.98 and half-maximal inhibition (IC50) required 4.8 nM.
For `C[C@@H]1CN(c2cccc(-c3ccc4cnc(CNC(=O)c5cc(Cl)c6c(c5)S(=O)(=O)[C@@H](F)CCO6)cc4n3)n2)C[C@H](C)O1` [Compound 148, (R)-9-chloro-N-((2-(6-((2S,6R)-2,6-dimethylmorpholino)pyridin-2-yl)-1,6-naphthyridin-7-yl)methyl)-4-fluoro-3,4-dihydro-2H-benzo[b][1,4]oxathiepine-7-carboxamide 5,5-dioxide] the same measures were 82.6 nM, 17.59 and 4.9 nM.
Take `COCCN(C)c1cnc2c(c1)CCCN2c1ccc2cnc(CNC(=O)c3cc(F)c4c(c3)S(=O)(=O)[C@@H](F)CCO4)cc2n1` [Compound 149]: on BRG-1, the IC50 was 67.7 nM. At BRM, the “Ratio (BRG1 IC50 (μM) divided by BRM IC50 (μM))” value is 13.78 and inhibition was half-maximal at 4.9 nM (IC50).
For `COc1nc(C(C)(F)F)ccc1-c1ccc2cnc(CNC(=O)c3cc(F)c4c(c3)S(=O)(=O)[C@@H](F)CCO4)cc2n1` [Compound 150] the same measures were 119 nM, 21.42 and 4.9 nM.
In the case of `CCOc1nc(C(F)F)ccc1-c1ccc2cnc(CNC(=O)c3cc(F)c4c(c3)S(=O)(=O)[C@@H](F)CCO4)cc2n1` [Compound 151], on BRG-1, the IC50 worked out at 76.6 nM. Moreover, on BRM, the “Ratio (BRG1 IC50 (μM) divided by BRM IC50 (μM))” value turned out to be 16.49 and the IC50 turned out to be 4.9 nM.
As to `CO[C@@H]1C[C@H]1c1cnc2c(c1)OCCN2c1ccc2cnc(CNC(=O)c3cc(F)c4c(c3)S(=O)(=O)[C@@H](F)CCO4)cc2n1` [Compound 152], the IC50 at BRG-1 was determined as 53 nM. In addition, at BRM, the “Ratio (BRG1 IC50 (μM) divided by BRM IC50 (μM))” value is listed as 11.35 and half-maximal inhibition (IC50) required 5 nM.
Consider `COc1cnc2c(c1)OCCN2c1ccc2cnc(CNC(=O)c3cc(F)c4c(c3)S(=O)(=O)[C@@H](F)CCO4)cc2c1` [Compound 153], for which the results for the concentration for half-maximal inhibition (IC50) at BRG-1 and at BRM were 69.5 nM and 5 nM, respectively. The “Ratio (BRG1 IC50 (μM) divided by BRM IC50 (μM))” value at BRM was 13.92.
The corresponding values for `CCOCc1cnc2c(c1)OCCN2c1ccc2cnc(CNC(=O)c3cc(F)c4c(c3)S(=O)(=O)[C@@H](F)CCO4)cc2n1` [Compound 154] are 68 nM, 5 nM and 15.21.
As for `O=C(NCc1cc2nc(-c3csnc3OC(F)F)ccc2cn1)c1cc(F)c2c(c1)S(=O)(=O)[C@@H](F)CCO2` [Compound 155], the IC50 on BRG-1 was found to be 88 nM. For the same compound, at BRM, the “Ratio (BRG1 IC50 (μM) divided by BRM IC50 (μM))” value was determined as 19.80 and half-maximal inhibition (IC50) was put at 5 nM.
For `O=C(NCc1cc2nc(N3CCOc4ccc([C@@H]5C[C@H]5F)nc43)ccc2cn1)c1cc(F)c2c(c1)S(=O)(=O)[C@@H](F)CCO2` [Compound 156], the IC50 at BRG-1 was found to be 97 nM. At BRM, the “Ratio (BRG1 IC50 (μM) divided by BRM IC50 (μM))” value was found to be 23.13 and the IC50 was 5 nM.
For `CC(C)c1cnc2c(c1)OCCN2c1ccc2cnc(CNC(=O)c3cc(F)c4c(c3)S(=O)(=O)[C@@H](F)CCO4)cc2n1` [Compound 157] the same measures were 96.8 nM, 18.45 and 5.1 nM.
`COc1cc(F)ccc1-c1ccc2cnc(CNC(=O)c3cc(F)c4c(c3)S(=O)(=O)[C@@H](F)CCO4)cc2n1` [Compound 158]: at BRG-1, the IC50 stood at 86.7 nM. For the same compound, on BRM, the “Ratio (BRG1 IC50 (μM) divided by BRM IC50 (μM))” value was determined as 17.08 and the IC50 was 5.1 nM.
For `O=C(NCc1cc2nc(N3CCOc4cc(C(F)F)cnc43)ccc2cn1)c1cc(F)c2c(c1)S(=O)(=O)[C@@H](F)CCO2` [Compound 159], on BRG-1, the IC50 was 100 nM. For the same compound, at BRM, the “Ratio (BRG1 IC50 (μM) divided by BRM IC50 (μM))” value is 14.72 and the IC50 was 5.1 nM.
For `Cc1cc(C(=O)NCc2cc3nc(N4CCOc5cc(N6CC[C@H]6C)cnc54)ccc3cn2)cc2c1OCC[C@H](F)S2(=O)=O` [Compound 160] the same measures were 76 nM, 17.82 and 5.1 nM.
For `Cc1cc2c(-c3ccc4cnc(CNC(=O)c5cc(F)c6c(c5)S(=O)(=O)[C@@H](F)CCO6)cc4n3)cccc2n1C` [Compound 161], the concentration for half-maximal inhibition (IC50) on BRG-1 was 49.3 nM. For the same compound, at BRM, the “Ratio (BRG1 IC50 (μM) divided by BRM IC50 (μM))” value was 9.63 and inhibition was half-maximal at 5.1 nM (IC50).
In the case of `C[C@H]1OC[C@H](F)S(=O)(=O)c2cc(C(=O)NCc3cc4nc(N5CCOc6cc(C7CC7)cnc65)ccc4cn3)ccc21` [Compound 162], at BRG-1, the IC50 was 221 nM. For the same compound, on BRM, the “Ratio (BRG1 IC50 (μM) divided by BRM IC50 (μM))” value was determined as 17.63 and inhibition was half-maximal at 11.3 nM (IC50).
With `[2H]C1([2H])OC([2H])([2H])[C@H](F)S(=O)(=O)c2cc(C(=O)NCc3cc4nc(N5CCOc6ccc(C(F)F)nc65)ccc4cn3)cc(F)c21` [Compound 163], the IC50 at BRG-1 stood at 116 nM; at BRM it was 5.2 nM.
On to `O=C(NCc1cc2nc(N3CCOc4ccc([C@H]5C[C@@H]5F)nc43)ccc2cn1)c1cc(F)c2c(c1)S(=O)(=O)[C@@H](F)CCO2` [Compound 164], for which, at BRG-1, the IC50 turned out to be 172 nM. Moreover, on BRM, the “Ratio (BRG1 IC50 (μM) divided by BRM IC50 (μM))” value is 32.00 and the IC50 came out at 5.2 nM.
With `C[C@@H]1CCN1c1cnc2c(c1)OCCN2c1ccc2cnc(CNC(=O)c3cc(Cl)c4c(c3)S(=O)(=O)[C@@H](F)CCO4)cc2n1` [Compound 165], the half-inhibitory concentration (IC50) at BRG-1 was 143 nM. Besides, on BRM, the “Ratio (BRG1 IC50 (μM) divided by BRM IC50 (μM))” value amounted to 22.18 and the IC50 was found to be 5.3 nM.

The term IC50 denotes the concentration that inhibits the measured activity by half.
